Measurements taken from PMC9090415, “Discovery of small molecule inhibitors of Plasmodium falciparum apicoplast DNA polymerase” (Journal of Enzyme Inhibition and Medicinal Chemistry, 2022).

Target: T1, bacteriophage T4 DNA polymerase (Enterobacteria phage T4, UniProt P04415)
T1 construct: made in house
T1 sequence (P04415 1-898): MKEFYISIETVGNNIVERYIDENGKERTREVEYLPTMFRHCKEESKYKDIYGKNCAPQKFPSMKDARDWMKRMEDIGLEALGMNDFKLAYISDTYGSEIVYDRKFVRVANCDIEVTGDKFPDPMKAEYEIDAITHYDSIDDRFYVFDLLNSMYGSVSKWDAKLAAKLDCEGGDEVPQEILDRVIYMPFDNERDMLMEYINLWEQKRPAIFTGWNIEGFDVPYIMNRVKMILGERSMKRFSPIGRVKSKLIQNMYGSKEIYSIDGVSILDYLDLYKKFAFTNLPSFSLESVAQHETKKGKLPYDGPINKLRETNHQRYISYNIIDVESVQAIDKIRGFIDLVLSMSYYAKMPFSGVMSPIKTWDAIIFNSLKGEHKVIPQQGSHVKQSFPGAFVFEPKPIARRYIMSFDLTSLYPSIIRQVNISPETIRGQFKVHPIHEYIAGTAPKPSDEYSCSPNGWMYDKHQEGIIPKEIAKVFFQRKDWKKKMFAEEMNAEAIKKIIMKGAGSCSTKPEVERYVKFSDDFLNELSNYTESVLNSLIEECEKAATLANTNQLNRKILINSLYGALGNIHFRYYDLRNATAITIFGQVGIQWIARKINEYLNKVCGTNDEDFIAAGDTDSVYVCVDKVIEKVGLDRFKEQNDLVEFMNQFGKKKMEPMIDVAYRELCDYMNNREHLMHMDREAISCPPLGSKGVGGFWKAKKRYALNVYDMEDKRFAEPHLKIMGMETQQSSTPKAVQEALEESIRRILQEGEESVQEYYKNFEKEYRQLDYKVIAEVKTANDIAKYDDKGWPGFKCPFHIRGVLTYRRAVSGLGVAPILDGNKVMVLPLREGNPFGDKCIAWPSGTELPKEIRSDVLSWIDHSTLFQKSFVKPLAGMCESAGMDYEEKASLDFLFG
Assay: Counter-screen against bacteriophage T4 DNA polymerase
Assay type: biochemical
Conditions: for % inhibition T4 10' 2.5 / % inhibition T4 10' 5 / % inhibition T4 10' 10 / % inhibition T4 10' 20 / % inhibition T4 10' 40 / % inhibition T4 10' 80: read at 10'; for % inhibition T4 70' 2.5 / % inhibition T4 70' 5 / % inhibition T4 70' 10 / % inhibition T4 70' 20 / % inhibition T4 70' 40 / % inhibition T4 70' 80: read at 70'; for % inhibition T4 130' 2.5 / % inhibition T4 130' 5 / % inhibition T4 130' 10 / % inhibition T4 130' 20 / % inhibition T4 130' 40 / % inhibition T4 130' 80: read at 130'; for % inhibition T4 40' 2.5 / % inhibition T4 40' 5 / % inhibition T4 40' 10 / % inhibition T4 40' 20 / % inhibition T4 40' 40 / % inhibition T4 40' 80: read at 40'; for % inhibition T4 90' 2.5 / % inhibition T4 90' 5 / % inhibition T4 90' 10 / % inhibition T4 90' 20 / % inhibition T4 90' 40 / % inhibition T4 90' 80: read at 90'; for % inhibition T4 180' 2.5 / % inhibition T4 180' 5 / % inhibition T4 180' 10 / % inhibition T4 180' 20 / % inhibition T4 180' 40 / % inhibition T4 180' 80: read at 180'
Outline: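 IC50 values come from dose-response testing of each compound against T4 DNA polymerase. This B-family polymerase was purified in-house and used as the counter-screen.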

## O=C(CCc1csc(NC(=O)Nc2ccccc2)n1)Nc1nc2ccccc2s1 [KU0177354]
DRC-1, concentration 2.5
  % inhibition T4 10' 2.5: 0.07751%
  % inhibition T4 70' 2.5: 1.62%
  % inhibition T4 130' 2.5: -0.4187%
DRC-1, concentration 5
  % inhibition T4 10' 5: 7.751%
  % inhibition T4 70' 5: 6.65%
  % inhibition T4 130' 5: 3.945%
DRC-1, concentration 10
  % inhibition T4 10' 10: 13.5789%
  % inhibition T4 70' 10: 12.106%
  % inhibition T4 130' 10: 9.972%
DRC-1, concentration 20
  % inhibition T4 10' 20: 14.0599%
  % inhibition T4 70' 20: 12.7058%
  % inhibition T4 130' 20: 11.4415%
DRC-1, concentration 40
  % inhibition T4 10' 40: 17.0084%
  % inhibition T4 70' 40: 16.9924%
  % inhibition T4 130' 40: 15.4247%
DRC-1, concentration 80
  % inhibition T4 10' 80: 35.4647%
  % inhibition T4 70' 80: 32.2475%
  % inhibition T4 130' 80: 30.1254%
DRC-2, concentration 2.5
  % inhibition T4 10' 2.5: -8%
  % inhibition T4 40' 2.5: -8%
  % inhibition T4 90' 2.5: -7%
  % inhibition T4 180' 2.5: -11%
DRC-2, concentration 5
  % inhibition T4 10' 5: 2.7%
  % inhibition T4 40' 5: 2%
  % inhibition T4 90' 5: 3%
  % inhibition T4 180' 5: -1.4%
DRC-2, concentration 10
  % inhibition T4 10' 10: 9%
  % inhibition T4 40' 10: 9%
  % inhibition T4 90' 10: 8.56%
  % inhibition T4 180' 10: 3%
DRC-2, concentration 20
  % inhibition T4 10' 20: 6.49%
  % inhibition T4 40' 20: 5.69%
  % inhibition T4 90' 20: 5.54%
  % inhibition T4 180' 20: 1.84%
DRC-2, concentration 40
  % inhibition T4 10' 40: 5.57%
  % inhibition T4 40' 40: 5%
  % inhibition T4 90' 40: 5%
  % inhibition T4 180' 40: 2.2%
DRC-2, concentration 80
  % inhibition T4 10' 80: 11%
  % inhibition T4 40' 80: 14%
  % inhibition T4 90' 80: 17%
  % inhibition T4 180' 80: 18%

## CCCCC(=O)N1CCc2c(nc3cc(-c4ccccc4Cl)[nH]n3c2=O)C1 [Molecule 37, CCCCC(=O)N1CCc2c(C1)nc1n(c2=O)[nH]c(c1)c1ccccc1Cl]
DRC-2, concentration 2.5
  % inhibition T4 10': 6%
  % inhibition T4 40': 6%
  % inhibition T4 90': 5%
DRC-2, concentration 5
  % inhibition T4 10': -3%
  % inhibition T4 40': -3%
DRC-2, concentration 10
  % inhibition T4 10': 3.42%
  % inhibition T4 40': 3.42%
DRC-2, concentration 20
  % inhibition T4 10': 0.821%
  % inhibition T4 40': 0.821%
DRC-2, concentration 40
  % inhibition T4 10': 4.74%
  % inhibition T4 40': 4.74%
  % inhibition T4 90': 5%
DRC-2, concentration 80
  % inhibition T4 10': 1.57%
  % inhibition T4 40': 1.57%

## CCC(C)NC(=O)c1cc(NC(C)=O)cc2nc(C)ccc12 (stereo not shown) [KU0206314]
DRC-2, concentration 80
  % inhibition T4 10': 42%
  % inhibition T4 90': 42%
DRC-2, concentration 2.5
  % inhibition T4 90': 13%
DRC-2, concentration 5
  % inhibition T4 90': 13%

## Cn1nc(-c2nnc(-c3ccccc3F)o2)c2c1CCN(C(=O)c1ccccc1Cl)C2 [Molecule 34, Cn1nc(c2c1CCN(C2)C(=O)c1ccccc1Cl)c1nnc(o1)c1ccccc1F]
DRC-1, concentration 2.5
  % inhibition T4 10' 2.5: -0.603%
  % inhibition T4 70' 2.5: -2.57%
  % inhibition T4 130' 2.5: -4%
DRC-1, concentration 5
  % inhibition T4 10' 5: -0.853%
  % inhibition T4 70' 5: -4%
  % inhibition T4 130' 5: -4%
DRC-1, concentration 10
  % inhibition T4 10' 10: 3%
  % inhibition T4 70' 10: -2%
  % inhibition T4 130' 10: -2.33%
DRC-1, concentration 20
  % inhibition T4 10' 20: 1.06%
  % inhibition T4 70' 20: -2.24%
  % inhibition T4 130' 20: -2.59%
DRC-1, concentration 40
  % inhibition T4 10' 40: 1.22%
  % inhibition T4 70' 40: -0.925%
  % inhibition T4 130' 40: 0.922%
DRC-1, concentration 80
  % inhibition T4 10' 80: 31%
  % inhibition T4 70' 80: 28%
  % inhibition T4 130' 80: 22%
DRC-2, concentration 2.5
  % inhibition T4 10' 2.5: 0.487%
  % inhibition T4 40' 2.5: -0.945%
  % inhibition T4 90' 2.5: -0.872%
  % inhibition T4 180' 2.5: -4.68%
DRC-2, concentration 5
  % inhibition T4 10' 5: -4%
  % inhibition T4 40' 5: -3.75%
  % inhibition T4 90' 5: -3.55%
  % inhibition T4 180' 5: -7.58%
DRC-2, concentration 10
  % inhibition T4 10' 10: -3%
  % inhibition T4 40' 10: -3%
  % inhibition T4 90' 10: -2.12%
  % inhibition T4 180' 10: -5%
DRC-2, concentration 20
  % inhibition T4 10' 20: 1.3%
  % inhibition T4 40' 20: 0.863%
  % inhibition T4 90' 20: 0.601%
  % inhibition T4 180' 20: -3.78%
DRC-2, concentration 40
  % inhibition T4 10' 40: 3.35%
  % inhibition T4 40' 40: 3.24%
  % inhibition T4 90' 40: 1.62%
  % inhibition T4 180' 40: -2.41%
DRC-2, concentration 80
  % inhibition T4 10' 80: 11%
  % inhibition T4 40' 80: 12%
  % inhibition T4 90' 80: 10%
  % inhibition T4 180' 80: 6%

## O=C(CSc1nnc(-c2ccco2)[nH]1)c1ccc(Cl)cc1 [KU0029065]
DRC-2, concentration 10
  % inhibition T4 40': 3%
  % inhibition T4 180': -2%
DRC-2, concentration 40
  % inhibition T4 40': -2%
DRC-2, concentration 2.5
  % inhibition T4 90': -13%
  % inhibition T4 180': -13%
DRC-2, concentration 20
  % inhibition T4 90': 3%

## COc1ccccc1CC(=O)N1CCc2c(nc3cc(-c4ccccc4Cl)[nH]n3c2=O)C1 [Molecule 49, COc1ccccc1CC(=O)N1CCc2c(C1)nc1n(c2=O)[nH]c(c1)c1ccccc1Cl]
DRC-1, concentration 2.5
  % inhibition T4 10' 2.5: -1.17%
  % inhibition T4 70' 2.5: -2.29%
  % inhibition T4 130' 2.5: -4%
DRC-1, concentration 5
  % inhibition T4 10' 5: -4%
  % inhibition T4 70' 5: -6%
  % inhibition T4 130' 5: -6%
DRC-1, concentration 10
  % inhibition T4 10' 10: -5.62%
  % inhibition T4 70' 10: -6%
  % inhibition T4 130' 10: -5%
DRC-1, concentration 20
  % inhibition T4 10' 20: -14%
  % inhibition T4 70' 20: -13%
  % inhibition T4 130' 20: -12%
DRC-1, concentration 40
  % inhibition T4 10' 40: -19%
  % inhibition T4 70' 40: -18%
  % inhibition T4 130' 40: -13%
DRC-1, concentration 80
  % inhibition T4 10' 80: -3%
  % inhibition T4 70' 80: -7%
  % inhibition T4 130' 80: -11%
DRC-2, concentration 2.5
  % inhibition T4 10' 2.5: -1%
  % inhibition T4 40' 2.5: -2.7%
  % inhibition T4 90' 2.5: -4%
  % inhibition T4 180' 2.5: -9%
DRC-2, concentration 5
  % inhibition T4 10' 5: -28%
  % inhibition T4 40' 5: -24%
  % inhibition T4 90' 5: -22%
  % inhibition T4 180' 5: -24%
DRC-2, concentration 10
  % inhibition T4 10' 10: -40%
  % inhibition T4 40' 10: -34%
  % inhibition T4 90' 10: -31%
  % inhibition T4 180' 10: -28%
DRC-2, concentration 20
  % inhibition T4 10' 20: -50%
  % inhibition T4 40' 20: -45%
  % inhibition T4 90' 20: -41%
  % inhibition T4 180' 20: -39%
DRC-2, concentration 40
  % inhibition T4 10' 40: -55%
  % inhibition T4 40' 40: -51%
  % inhibition T4 90' 40: -49%
  % inhibition T4 180' 40: -47%
DRC-2, concentration 80
  % inhibition T4 10' 80: -54%
  % inhibition T4 40' 80: -47%
  % inhibition T4 90' 80: -47%
  % inhibition T4 180' 80: -46%

## O=C1c2ccccc2C(=O)N1Oc1ccc([N+](=O)[O-])c([N+](=O)[O-])c1 [Molecule 66, O=N(=O)c1cc(ccc1N(=O)=O)ON1C(=O)c2c(C1=O)cccc2]
DRC-2, concentration 2.5
  % inhibition T4 10': -5%
  % inhibition T4 40': -5%
DRC-2, concentration 5
  % inhibition T4 10': -4%
  % inhibition T4 90': -4%
